Data from patent publication US8497385B2, “Bryostatin analogues, synthetic methods and uses” (The Board of Trustees of the Leland Stanford Junior …, priority 2007, dated 2013).

What was measured:
PKCδ-C1B = PKCδ-C1B (Homo sapiens (Human), UniProt Q05655); assay: PKCδ-C1B Assay; format: binding
P388 cell line = assay: P388 Murine Lymphocytic Leukemia Cell Assay; format: cell-based
Description: Cells from a P388 cell line (CellGate, Inc., Sunnyvale, Calif.) are grown in RPMI 1640 cell medium containing fetal calf serum (10%), L-glutamine, penicillin, streptomycin and are split twice weekly. All compounds are first diluted with DMSO. Later serial dilutions are done with a phosphate buffer solution (HYQ DPBS modified phosphate buffered saline). All dilutions are done in glass vials and the final DMSO concentration is always below 0.5% by volume. Final two-fold dilutions are done in a 96 well plate using cell media so that each well contains 50 μL. All compounds are assayed in quadruplicate over 12 concentrations. Cell concentration is measured using a hemacytometer and the final cell concentration is adjusted to 1×10^4 cells/mL with cell medium. The resulting solution of cells (50 μL) is then added to each well and the plates are incubated for 5 days in a 37° C., 5% CO2, humidified incubator (Sanyo CO2 incubator). MTT solution (3-[4,5-dimethylthiazol-2-yl]-2,5-diphenyltetrazolium bromide, 10 μL) is then added to each well and the plates are re-incubated under identical conditions for 2 h. To each well is then added acidified isopropanol (150 μL of i-PrOH solution containing 0.05 N HCl) and mixed thoroughly. The plates are then scanned at 595 nm and the absorbances are read (Wallac Victor 1420 Multilabel Counter). The resulting data is then analyzed to determine an ED50 value using the Prism software package (GraphPad).

[1] = tested on: NCl human cancer cell-lines; assay: In vitro inhibition of growth in NCI human cancer cell lines, all cell groups; format: cell-based; conditions: all cell groups tested
CCRF-CEM = assay: NCI growth inhibition, CCRF-CEM (Leukemia); format: cell-based, human
HL-60(TB) = format: cell-based, human
MOLT-4 = assay: NCI growth inhibition, MOLT-4 (Leukemia); format: cell-based, human
RPMI-8226 = assay: NCI growth inhibition, RPMI-8226 (Leukemia); format: cell-based, human
A549/ATCC = assay: NCI growth inhibition, A549/ATCC (NSC Lung); format: cell-based, human
EKVX = assay: NCI growth inhibition, EKVX (NSC Lung); format: cell-based, human
NCI-H322M = assay: NCI growth inhibition, NCI-H322M (NSC Lung); format: cell-based, human
COLO 205 = assay: NCI growth inhibition, COLO 205 (Colon); format: cell-based, human
HCC-2998 = assay: NCI growth inhibition, HCC-2998 (Colon); format: cell-based, human
HCT-116 = assay: NCI growth inhibition, HCT-116 (Colon); format: cell-based, human
HT29 = assay: NCI growth inhibition, HT29 (Colon); format: cell-based, human
SF-295 = assay: NCI growth inhibition, SF-295 (CNS); format: cell-based, human
SF-539 = assay: NCI growth inhibition, SF-539 (CNS); format: cell-based, human
SNB-75 = assay: NCI growth inhibition, SNB-75 (CNS); format: cell-based, human
PC-3 = assay: NCI growth inhibition, PC-3 (Prostate); format: cell-based, human
LOX IMVI = assay: NCI growth inhibition, LOX IMVI (Melanoma); format: cell-based, human
SK-MEL-2 = assay: NCI growth inhibition, SK-MEL-2 (Melanoma); format: cell-based, human
SK-MEL-28 = assay: NCI growth inhibition, SK-MEL-28 (Melanoma); format: cell-based, human
OVCAR-5 = assay: NCI growth inhibition, OVCAR-5 (Ovarian); format: cell-based, human
OVCAR-8 = assay: NCI growth inhibition, OVCAR-8 (Ovarian); format: cell-based, human
SK-OV-3 = assay: NCI growth inhibition, SK-OV-3 (Ovarian); format: cell-based, human
786-0 = assay: NCI growth inhibition, 786-0 (Renal); format: cell-based, human
A498 = assay: NCI growth inhibition, A498 (Renal); format: cell-based, human
MCF7 = assay: NCI growth inhibition, MCF7 (Breast); format: cell-based, human
NCI/ADR-RES = assay: NCI growth inhibition, NCI/ADR-RES (Breast); format: cell-based, human
MDA-MB-435 = assay: NCI growth inhibition, MDA-MB-435 (Breast); format: cell-based, human
BT-549 = assay: NCI growth inhibition, BT-549 (Breast); format: cell-based, human
T-47D = assay: NCI growth inhibition, T-47D (Breast); format: cell-based, human
HS 578T = assay: NCI growth inhibition, HS 578T (Breast); format: cell-based, human
[2] = 702.1 vs C26 methyl-containing analogue, 48, 49 vs other C20 esters

Sequence of PKCδ-C1B (Q05655 whole entry, looked up): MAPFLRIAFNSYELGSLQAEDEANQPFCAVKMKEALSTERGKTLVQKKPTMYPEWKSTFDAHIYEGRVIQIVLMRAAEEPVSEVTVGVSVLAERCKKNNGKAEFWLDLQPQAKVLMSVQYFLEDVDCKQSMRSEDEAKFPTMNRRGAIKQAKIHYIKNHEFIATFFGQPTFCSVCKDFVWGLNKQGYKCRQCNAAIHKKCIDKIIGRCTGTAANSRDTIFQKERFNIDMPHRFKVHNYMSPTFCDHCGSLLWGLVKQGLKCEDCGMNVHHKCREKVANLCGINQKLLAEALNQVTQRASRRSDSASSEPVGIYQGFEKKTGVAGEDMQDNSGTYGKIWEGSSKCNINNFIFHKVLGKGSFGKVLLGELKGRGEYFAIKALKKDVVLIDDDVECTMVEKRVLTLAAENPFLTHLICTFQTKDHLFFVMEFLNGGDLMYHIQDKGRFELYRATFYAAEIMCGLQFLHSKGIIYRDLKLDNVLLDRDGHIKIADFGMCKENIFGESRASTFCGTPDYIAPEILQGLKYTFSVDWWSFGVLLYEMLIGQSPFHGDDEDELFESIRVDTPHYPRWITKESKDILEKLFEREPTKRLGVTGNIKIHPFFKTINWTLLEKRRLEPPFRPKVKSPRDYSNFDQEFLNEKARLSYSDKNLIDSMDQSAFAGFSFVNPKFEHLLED

## CCCCCCCC(=O)OC1C(=CC(=O)OC)CC2CC(CO)OC(=O)CC(O)CC3CCCC(CC4CCOC(C=CC(C)(C)C1(O)O2)O4)O3 (centres unmarked) [Formula IIa (702.1)]
PKCδ-C1B; [2]
  activity in PKCδ-C1B assay relative to comparison analogues: significantly higher activity
PKCδ-C1B; competition with tritiated phorbol 12,13-dibutyrate
  Ki: 0.3 ± 0.07 nM
P388 cell line; [2]
  activity in P388 assay relative to comparison analogues: significantly higher activity
P388 cell line; 5 days incubation, MTT
  P388 Assay ED50: 17 nM
[1]
  potency relative to bryostatin-1, on average: at least as potent, on average, as bryostatin-1
CCRF-CEM
  Difference of GI50 (log), Desmethyl vs Bryo-1: −0.51
CCRF-CEM; Leukemia
  GI50: −5.81 log of molar concentration
HL-60(TB)
  Difference of GI50 (log), Desmethyl vs Bryo-1: −0.14
  GI50: −5.84 log of molar concentration
MOLT-4; MOLT-4
  Difference of GI50 (log), Desmethyl vs Bryo-1: −2.50
MOLT-4; MOLT-4, Leukemia
  GI50: <−8.0 log of molar concentration
  more active than bryostatin-1: more than 2 orders of magnitude
RPMI-8226; RPMI-8226
  Difference of GI50 (log), Desmethyl vs Bryo-1: −0.82
RPMI-8226; RPMI-8226, Leukemia
  GI50: −5.82 log of molar concentration
A549/ATCC
  Difference of GI50 (log), Desmethyl vs Bryo-1: −1.42
A549/ATCC; NSC Lung
  GI50: −6.62 log of molar concentration
EKVX
  Difference of GI50 (log), Desmethyl vs Bryo-1: −0.28
EKVX; NSC Lung
  GI50: −5.58 log of molar concentration
NCI-H322M
  Difference of GI50 (log), Desmethyl vs Bryo-1: 1.62
NCI-H322M; NSC Lung
  GI50: −4.38 log of molar concentration
COLO 205; COLO 205
  Difference of GI50 (log), Desmethyl vs Bryo-1: −1.68
COLO 205; COLO 205, Colon
  GI50: −7.08 log of molar concentration
HCC-2998; HCC-2998
  Difference of GI50 (log), Desmethyl vs Bryo-1: −2.24
HCC-2998; HCC-2998, Colon
  GI50: −7.54 log of molar concentration
  more active than bryostatin-1: more than 2 orders of magnitude
HCT-116; HCT-116
  Difference of GI50 (log), Desmethyl vs Bryo-1: −0.02
HCT-116; HCT-116, Colon
  GI50: −5.32 log of molar concentration
HT29; HT29
  Difference of GI50 (log), Desmethyl vs Bryo-1: −0.25
HT29; HT29, Colon
  GI50: −5.55 log of molar concentration
SF-295; SF-295
  Difference of GI50 (log), Desmethyl vs Bryo-1: −0.85
SF-295; SF-295, CNS
  GI50: −6.05 log of molar concentration
SF-539; SF-539
  Difference of GI50 (log), Desmethyl vs Bryo-1: −0.77
SF-539; SF-539, CNS
  GI50: −5.77 log of molar concentration
SNB-75; SNB-75
  Difference of GI50 (log), Desmethyl vs Bryo-1: 0.53
SNB-75; SNB-75, CNS
  GI50: −4.97 log of molar concentration
PC-3; PC-3
  Difference of GI50 (log), Desmethyl vs Bryo-1: −0.30
PC-3; PC-3, Prostate
  GI50: −5.6 log of molar concentration
LOX IMVI
  Difference of GI50 (log), Desmethyl vs Bryo-1: −0.37
LOX IMVI; Melanoma
  GI50: −5.47 log of molar concentration
SK-MEL-2; SK-MEL-2
  Difference of GI50 (log), Desmethyl vs Bryo-1: 0.18
SK-MEL-2; SK-MEL-2, Melanoma
  GI50: −5.02 log of molar concentration
SK-MEL-28; SK-MEL-28
  Difference of GI50 (log), Desmethyl vs Bryo-1: 0.43
SK-MEL-28; SK-MEL-28, Melanoma
  GI50: −4.67 log of molar concentration
OVCAR-5; OVCAR-5
  Difference of GI50 (log), Desmethyl vs Bryo-1: −0.28
OVCAR-5; OVCAR-5, Ovarian
  GI50: −5.28 log of molar concentration
OVCAR-8; OVCAR-8
  Difference of GI50 (log), Desmethyl vs Bryo-1: 0.33
OVCAR-8; OVCAR-8, Ovarian
  GI50: −4.77 log of molar concentration
SK-OV-3; SK-OV-3
  Difference of GI50 (log), Desmethyl vs Bryo-1: 0.80
SK-OV-3; SK-OV-3, Ovarian
  GI50: −4.3 log of molar concentration
786-0; 786-0
  Difference of GI50 (log), Desmethyl vs Bryo-1: −0.26
786-0; 786-0, Renal
  GI50: −5.46 log of molar concentration
A498; A498
  Difference of GI50 (log), Desmethyl vs Bryo-1: −1.38
A498; A498, Renal
  GI50: −6.38 log of molar concentration
MCF7; MCF7
  Difference of GI50 (log), Desmethyl vs Bryo-1: −0.20
MCF7; MCF7, Breast
  GI50: −5.4 log of molar concentration
NCI/ADR-RES
  GI50: −4.74 log of molar concentration
MDA-MB-435; MDA-MB-435
  Difference of GI50 (log), Desmethyl vs Bryo-1: −2.56
MDA-MB-435; MDA-MB-435, Breast
  GI50: −7.66 log of molar concentration
  more active than bryostatin-1: more than 2 orders of magnitude
BT-549; BT-549
  Difference of GI50 (log), Desmethyl vs Bryo-1: 0.39
BT-549; BT-549, Breast
  GI50: −4.71 log of molar concentration
T-47D
  Difference of GI50 (log), Desmethyl vs Bryo-1: 0.18
T-47D; Breast
  GI50: −5.02 log of molar concentration
HS 578T
  Difference of GI50 (log), Desmethyl vs Bryo-1: 0.02
HS 578T; Breast
  GI50: −5.18 log of molar concentration
